# Experimental data taken from patent US20090131449A1, “USE OF TRPV1 RECEPTOR ANTAGONISTS FOR TREATING DRY EYE AND OCULAR PAIN” (ALCON RESEARCH, LTD., priority 2007, published 2009).
# Legend:
# [1] = test system: Formalin-Induced Blink Response in Rats; experiment: formalin-induced blink response assay (ocular pain); format: in vivo, Sprague-Dawley rats; conditions: rat; for Number of Blinks/1 min Mean ± S.D.: 20 μL topical ocular, 0.1% formalin challenge; for Number of Blinks/1 min Mean ± S.D. / % Inhibition of formalin-induced blink response: pretreatment 5 min; for % Inhibition of formalin-induced blink response: topical ocular; for inhibition of formalin-induced blink response (in words): highest concentration tested (1%)
# Description: The effects of two transient receptor potential vanilloid receptor subfamily, member 1 (TRPV1) antagonists on ocular pain in rats were tested using a formalin-induced blink response assay. Sprague-Dawley rats were treated topical ocular with 20 μL of vehicle (maxidex vehicle), N-{4-[6-(4-trifluoromethyl-phenyl)-pyrimidin-4-yloxy]-benzothiazol-2-yl}-acetamide (AL-49975, also known as AMG-517, Amgen Inc., Thousand Oaks, Calif.), or (R)—N-(4-(6-(4-(1-(4-fluorophenyl)ethyl)piperazin-1-yl)pyrimidin-4-yloxy)benzo[d]thiazol-2-yl)acetamide (AL-49976, also known as AMG-628, Amgen Inc., Thousand Oaks, Calif.) to one eye only. After the appropriate pretreatment time of about 5 minutes, 5 μL of 0.1% formalin was applied topical ocular. Each rat was placed in a clear plastic box, and the number of blinks was counted for 1 minute immediately following the formalin challenge.
# [2] = test system: mechanical blink response in normal rats; experiment: corneal anesthetic activity, blinks induced by mechanical touch (Cochet-Bonnet Esthesiometer); format: in vivo, Sprague Dawley rats; conditions: rat; for inhibition of mechanical blink response / topical anesthetic activity (in words): 1% concentration; for Total number of Blinks/Total number of Touches: 20 μl topical ocular, N = 6/group; for Total number of Blinks/Total number of Touches / % Blocked (mechanical blink response): pretreatment 5 min; for % Blocked (mechanical blink response): topical ocular
# Text: Corneal anesthetic effects of TRPV1 antagonists were examined by analyzing suppression of blinks induced by mechanical touch. A Cochet-Bonnet Esthesiometer was used to determine corneal anesthetic activities of the TRPV1 antagonist, AMG-517 (AL-49975), in normal rats. Male Sprague Dawley rats (˜500 g) were divided into groups of 6 each, restrained in a DecapiCone rat restraint, and secured at the posterior with tape. A hole was cut into the cone to expose the right eye. Twenty-four hours prior to the experiment the eyelashes and whiskers were trimmed with scissors. The right eye was dosed with 20 μl of drug or maxidex vehicle, and the timer was set for 5 minutes to allow the rat time to acclimate. The Cochet-Bonnet Esthesiometer fiber was set at 30 mm and perpendicularly touched by a masked observer to the center of the cornea 10 times with a 3 second delay between counts. Blinks were counted with each touch of the fiber, and a total score out of 10 was recorded. If more than one blink occurred in response to a single touch, this event was counted as one blink response.
# [3] = 1% conc., *p < 0.05 Dunnett's t-test
smiles,measurement,setting,value
"CC(=O)Nc1nc2c(Oc3cc(-c4ccc(C(F)(F)F)cc4)ncn3)cccc2s1 [AL-49975, N-{4-[6-(4-trifluoromethyl-phenyl)-pyrimidin-4-yloxy]-benzothiazol-2-yl}-acetamide]",Number of Blinks/1 min Mean ± S.D.,[1]; 0.01% conc.,58 ± 11 Blinks/1 min
same,% Inhibition of formalin-induced blink response,[1]; 0.01% conc.,20%
same,Number of Blinks/1 min Mean ± S.D.,[1]; 0.1% conc.,51 ± 18 Blinks/1 min
same,% Inhibition of formalin-induced blink response,[1]; 0.1% conc.,29%
same,Number of Blinks/1 min Mean ± S.D.,[1]; 1% conc.,44 ± 17 Blinks/1 min
same,% Inhibition of formalin-induced blink response,[1]; [3],39* %
same,inhibition of formalin-induced blink response (in words),[1],"dose-dependent fashion, achieving significant inhibition"
same,inhibition of mechanical blink response / topical anesthetic activity (in words),[2],did not significantly inhibit the blink response
same,inhibition of mechanical blink response / topical anesthetic activity (in words),[2]; listed as AMG-517,did not have topical anesthetic activity
same,Total number of Blinks/Total number of Touches,[2]; 1%,54/60
same,% Blocked (mechanical blink response),[2]; 1%,10%
"CC(=O)Nc1nc2c(Oc3cc(N4CCN([C@H](C)c5ccc(F)cc5)CC4)ncn3)cccc2s1 [AL-49976, (R)—N-(4-(6-(4-(1-(4-fluorophenyl)ethyl)piperazin-1-yl)pyrimidin-4-yloxy)benzo[d]thiazol-2-yl)acetamide]",Number of Blinks/1 min Mean ± S.D.,[1]; 0.01% conc.,58 ± 7 Blinks/1 min
same,% Inhibition of formalin-induced blink response,[1]; 0.01% conc.,19%
same,Number of Blinks/1 min Mean ± S.D.,[1]; 0.1% conc.,66 ± 23 Blinks/1 min
same,% Inhibition of formalin-induced blink response,[1]; 0.1% conc.,9%
same,Number of Blinks/1 min Mean ± S.D.,[1]; 1% conc.,47 ± 11 Blinks/1 min
same,% Inhibition of formalin-induced blink response,[1]; [3],35* %
same,inhibition of formalin-induced blink response (in words),[1],significantly inhibited the pain response
"CCCOc1ccc(C(=O)OCCN(CC)CC)cc1N [Alcaine, proparacaine, reference compound]",Total number of Blinks/Total number of Touches,[2]; 0.5%,2/60
same,% Blocked (mechanical blink response),"[2]; 0.5%, *p < 0.01 Chi-squared vs. vehicle",97* %
same,% Blocked (mechanical blink response),"[2]; 0.5%, *p < 0.01 Chi-squared vs. vehicle, listed as proparacaine",95%
